From patent US20080050452A1, “METAL-CONTAINING FORMULATIONS AND METHODS OF USE” (priority 2006, published 2008) come the findings set out here.

Data set [1] in a line: Compatibility of nanocrystalline silver with excipients. The following applies: 10% aqueous solution of excipient mixed with nanocrystalline silver in glass vial, 40° C. overnight. It counts as physicochemical.
A further data set deals with Enterobacter cloacae. Description: MIC assay. The following applies: Ent. cloacae. It counts as cell-based.
In the next data set the test system is Escherichia coli. Briefly: MIC assay. In kind it is cell-based.
Data set [2] deals with DNBS-induced colitis. Briefly: Total IBD score in rat DNBS-induced colitis. In kind it is in vivo, Sprague-Dawley rats.
From the text: Animals: Male Sprague-Dawley rats, weighing approximately 250-300 gm were purchased from Charles River Laboratories (Raleigh, N.C.). The animals were housed under standard conditions with free access to food and water. They were acclimatized for 2-3 days before commencing the experiments. The study protocol was approved by the Institutional Animal Care and Use Committees (IACUC).
Induction of ulcerative colitis: Colitis was produced according to published methods. Animals were anesthetized by intraperitoneal injection of 75 mg/kg of ketamine plus 5 mg/kg of xylazine. A single intracolonic injection of 120 mg/ml of dinitrobenzenesulfonic acid (DNBS) (Sigma Chemicals, St. Louis, Mo.) in 250 micro liter of 50% ethanol was administered through a Tom Cat catheter (Kendall Sovereign, Mansfield, Mass.) with a closed-end tip, connected to a 1 ml syringe and placed 7 cm proximal to the anus. Lubricant was applied to the tip of the catheter before injection, to protect from mucosal injury. After instillation of DNBS, 0.5 ml of air was insufflated and the catheter was removed.
Sulfasalazine (Sigma Chemicals, St Louis, Mo.), at a concentration of 120 mg/ml for intracolonic treatment and 30 mg/ml for oral treatment was used as the reference drug in all the experiments. Sulfasalazine was first dissolved in 0.1M NaOH at a concentration about 30-fold higher than the required final concentration, and then suspended in 1.5% PVA for oral dosing and 5.7% PVA for intracolonic dosing.
One group was not treated and served as no treatment group. Treatment began one day after administration of DNBS.
Macroscopic Observations: Body weight was recorded daily and the animals were examined for their physical appearance. After five days of treatment, animals were sacrificed. The colon was excised between the ileocecal junction and rectum, and opened longitudinally. After scoring of the consistency of the stool the colon was rinsed in normal saline, examined and thickness of the colonic wall and number and size of ulcers were scored. Stool consistency was graded on a scale of 0-3: 0=normal stool, well formed pellets rigid as normal; 1=loose stool, formed pellet with moisture, soft stool keeping in stool shape; 2=loose stool, stools that have abnormal form with much moisture, softer shapeless stool; 3=watery or bloody diarrhea.
Thickness of colonic wall was graded on a scale of 0-4: 0=normal, no thickness; 1=mild thickness in lower portion of the colon; 2=moderate thickness in localized area; 3=moderate thickness extending to the central portion of the colon; 4=severe thickness in the whole colon. Colonic ulceration was graded on a scale of 0-10: 0=no ulcers; 1=one small ulcer less than 2-3 mm; 2=one large ulcer more than 2-3 mm; 3=two large ulcerations more than 2-3 mm in diameter; 4=two or more sites of ulcerations extending 1 cm along the length; 5-10=when an area of ulceration extended more than 1 cm along the length of the colon, the score increases by 1 for each additional cm of involvement. The total IBD score, obtained by the sum of the scores of colonic ulcer, colon thickness and stool consistency for each animal, was calculated for each treatment group.
Statistical Analysis: The results are expressed as the mean ±SE. The statistical significance in the mean total IBD score, histopathological inflammation score, and the immunohistochemical staining of cytokines or MMP-9 was determined using Tukey-Kramer's multiple comparison tests following one-way analysis of variance (ANOVA). The data were calculated with the aid of Instat Graph Pad Software. Differences with a P value less than 0.05 were considered significant.
Methods: Colitis was induced in rats using DNBS as described in Example 25. Animals were treated intracolonically (250 μl of the test reagents) once a day for five days. […] Methods: Colitis was induced in rats using DNBS as described in Example 25. Animals were treated intracolonically (250 μl of the test reagents) once a day for five days.
Data set [3] has as its system DNBS-induced colitis. Briefly: Histopathological inflammation score of colon, rat DNBS-induced colitis. It counts as in vivo, Sprague-Dawley rats. The conditions noted are these: oral, 100 mg/kg, five days, vs placebo and untreated. As for the experimental part: Histopathology: A piece of colonic tissue at 2-4 cm proximal to the anus was excised and fixed in 10% formalin and the sections were stained with hematoxylin and eosin. The remaining length of the colonic tissues was stored at −80° C. for subsequent biochemical assays. The histology slides were examined by a veterinary pathologist who was blinded to the treatment groups. The extent of microscopic mucosal damage of the colon was scored on scale of 0-5 as described with slight modification: 0=normal histological appearance; 1=histological damage limited to surface epithelium, mild infiltration of the submucosa; 2=focal ulceration and cell disruption limited to mucosa, abnormal appearance of colonic wall, mild infiltration of inflammatory cells; 3=focal, transmural inflammation and ulceration, with mild to moderate infiltration of inflammatory cells; 4=Extensive transmural ulceration and inflammation bordered by areas of normal mucosa, moderate infiltration of inflammatory cells; 5=extensive transmural ulceration and inflammation involving entire section from epithelium to serosa, severe infiltration of inflammatory cells.
Statistical Analysis: The results are expressed as the mean ±SE. […] The data were calculated with the aid of Instat Graph Pad Software. […]

Another data set relates to IL-1β. Briefly: Immunohistochemical staining of colon, rat DNBS-induced colitis. The conditions noted are these: oral treatment five days. In kind it is in vivo. As for the experimental part: (§1) Immunohistochemistry: A Universal Streptavidin/Biotin detection system (Thermo Shandon, Pittsburgh, Pa.) was used for immunohistochemical staining of formalin fixed, paraffin embedded biopsies of the colon. After dewaxing, and hydration, sections were treated with protein blocking agent to reduce non-specific binding of antibodies. The tissues were then incubated with rabbit anti-rat TNF-α, or mouse anti-rat IL-12 p70 antibodies (Biosource International, Inc, Camarillo, Calif.); rabbit anti-rat IL-1β (Serotec, Raleigh, N.C.) or rabbit anti-rat MMP-9 antibody (Chemicon International, Telecuma, Calif.) in 1% bovine serum albumin in phosphate buffered saline. Incubations with secondary antibodies, streptavidin/biotin, and chromogenic detection of peroxidase were performed according to the manufacturer's protocol. Sections were counterstained, dehydrated, mounted and examined. The intensity of the immuno-peroxidase staining was graded as described previously. Expression of cytokines was graded as: 0, no staining in the section; 1, less than 25% of the section; 2, 25-50% of the section; 3, 50-75% of the section; 4, >75% of the section with significant staining.

Another data set deals with MMP-9. Described as above. In kind it is in vivo. The following applies: colonic tissues, oral treatment, vs placebo and no treatment. Here is the method: as §1
In the next data set the test system is TNF-α. Described as above. In kind it is in vivo. The following applies: oral treatment five days. Here is the method: as §1
Data set [4] is described as follows: Body weight in rat DNBS-induced colitis. In kind it is in vivo, Sprague-Dawley rats. The conditions noted are these: rats with DNBS-induced colitis, intracolonic or oral treatment.
The test system of data set [5] is Staphylococcus epidermidis. Description: MIC assay. In kind it is cell-based. The conditions noted are these: S. epiderm (ATCC); solutions in 0.1 M lactate buffer pH 4.0.
Another data set relates to Streptococcus pyogenes. Briefly: MIC assay. In kind it is cell-based. The conditions noted are these: solutions in 0.1 M lactate buffer pH 4.0.
Another data set has as its system Staphylococcus aureus. Description: MIC assay. In kind it is cell-based. The conditions noted are these: solutions in 0.1 M lactate buffer pH 4.0.
The subject of the next data set is Pseudomonas aeruginosa. Description: MIC assay. It counts as cell-based. The conditions noted are these: solutions in 0.1 M lactate buffer pH 4.0.
For another data set, the system named is Streptococcus pneumoniae. Briefly: MIC assay. It counts as cell-based. The following applies: solutions in 0.1 M lactate buffer pH 4.0.

Values after ≈ are worked out from the molar mass of the structure shown. A value given as a limit tells only on which side of the number the result lay.

Consider `OCc1ccccc1` [Benzyl alcohol], for which, in [1], the “Reaction with nanocrystalline silver” value is “Grey/slightly red”.
The same measure, in the same setting: the result for `CCCCCCCCCCCCCCCCCCO` [Cetearyl alcohol] reads “Light brown/green/black”; that for `CCCCCCCCCCCCCCCCO` [Cetyl alcohol], “Grey color - no discoloration”.
Same read-out and setting: to `CCCCCCCCCCCCCCCCCC(=O)OCC(O)CO` (stereo not drawn) [Glycerol monostearate] belongs “Brown discoloration”; to `CCCCCCCCCCCCCC(=O)OC(C)C` [Isopropyl myristate], “Grey color - no discoloration”; to `COC(=O)c1ccc(O)cc1` [Methylparaben], “Brown discoloration”.
Same read-out and setting: the result for `CC(O)CO` (stereo not drawn) [Propylene glycol] reads “Discoloration”; that for `CCCOC(=O)c1ccc(O)cc1` [Propylparaben], “Green discoloration”.
In the case of `OO` [Sample H2O2, hydrogen peroxide], the minimum inhibitory concentration (MIC) in the data set with Enterobacter cloacae (absence of catalase and superoxide dismutase (−)) is 63 µg/mL (≈ 1850 µM); in the data set with Enterobacter cloacae (presence of catalase and superoxide dismutase (+)) it was more than 500 µg/mL; against Escherichia coli (E. coli, absence of catalase and superoxide dismutase (−)), 31 µg/mL (≈ 911 µM); in the data set on Escherichia coli (E. coli, presence of catalase and superoxide dismutase (+)) it was more than 500 µg/mL. For the same compound, the “Reaction with nanocrystalline silver” value in data set [1] is “Brown discoloration after drying”.
Consider `O=C([O-])c1ccccc1.[Na+]` [Sodium benzoate], for which, in [1], the “Reaction with nanocrystalline silver” value is reported as “White precipitate”.
On the same count and under the same terms, the result for `CCCCCCCCCCCCCCCCCC(=O)O` [Stearic acid] reads “Grey color - no discoloration”; that for `CCOCCOCCO` [Transcutol, diethylene glycol monoethyl ether], “Grey color - no discoloration”.
Take `O=C(O)c1cc(/N=N/c2ccc(S(=O)(=O)Nc3ccccn3)cc2)ccc1O` [sulfasalazine, salicylazosulfapyridine]: the “total IBD score vs placebo” value in the data set with DNBS-induced colitis [2] (Example 27, intracolonic, 100 mg/kg) is “significantly reduced”; in the data set on DNBS-induced colitis [2] (Example 28, intracolonic, 100 mg/kg), “significantly reduced”. Further, in the data set on DNBS-induced colitis [2] (intracolonic, 100 mg/kg, five days), the “total IBD score” value is “Significant reduction”. Also, the histopathological inflammation score entry in the data set on DNBS-induced colitis [3] was “significantly reduced”. Also, the “expression of IL-1β (immunohistochemical staining)” value in the data set with IL-1β was “significantly reduced”. Further, the “expression of MMP-9 (immunohistochemical staining)” value in the data set on MMP-9 is listed as “significantly reduced”. Further, the “expression of TNF-α (immunohistochemical staining)” value in the data set on TNF-α is on record as “significantly reduced”. The body weight change result in [4] was “started gaining body weight after one day of treatment”.
On to PEG 400, for which the “Reaction with nanocrystalline silver” value in data set [1] is reported as “Grey color - no discoloration”.
On the same count and under the same terms, to Polyoxyl 40 stearate belongs “Grey color - no discoloration”.
On the same count and under the same terms, the result for Sodium parabens reads “Precipitation”.
With silver oxide [Ag2O], the “total IBD score vs placebo” value in the data set on DNBS-induced colitis [2] (Example 27, intracolonic 250 μl once a day for five days, 0.25% homogenized) is “unable to show significant reduction”; in the data set on DNBS-induced colitis [2] (Example 27, intracolonic 250 μl once a day for five days, 0.5% homogenized) it was “unable to show significant reduction”; with DNBS-induced colitis [2] (Example 27, intracolonic 250 μl once a day for five days, 0.5% sonicated nanodispersion), “significantly reduced”; in the data set with DNBS-induced colitis [2] (Example 28, intracolonic 250 μl once a day for five days, 0.5% sonicated nanodispersion), “significantly reduced”; in the data set on DNBS-induced colitis [2] (Example 28, intracolonic 250 μl once a day for five days, 1.5% sonicated nanodispersion), “significantly reduced”. For the same compound, the MIC was determined as 2 µg/mL in [5]; 2 µg/mL in the data set with Streptococcus pyogenes (S. pyog (clin. 303)); 3 µg/mL against Streptococcus pyogenes (S. pyog (clin. 304)); 3 µg/mL in the data set with Staphylococcus aureus (S. aureus (ATCC)); 6 µg/mL against Staphylococcus aureus (S. aureus (clin.)); 0.8 µg/mL with Escherichia coli (E. coli (ATCC), solutions in 0.1 M lactate buffer pH 4.0). The MIC worked out at 0.8 µg/mL against Pseudomonas aeruginosa (P. aerug (ATCC)), 2 µg/mL in the data set with Pseudomonas aeruginosa (P. aerug. (clin.)), 3 µg/mL against Streptococcus pneumoniae (S. pneumo (clin 314)) and 2 µg/mL in the data set with Streptococcus pneumoniae (S. pneumo (clin 315)).

Broadly, the MIC is the least concentration at which growth counts as inhibited.
